From patent US20230357248A1, “PYRROLOPYRIMIDINE COMPOUND AS BTK INHIBITOR AND USE THEREOF” (MEDSHINE DISCOVERY INC., priority 2019, published 2023) come the findings set out here.

As a reminder, the IC50 is the concentration at which inhibition is half-maximal.

The target in test [1] is BTK^C481S (Homo sapiens (Human), UniProt Q06187, C481S). Nature of the test: BTK enzyme activity assay. The test is classed as biochemical. The note with it: 200 μM ATP; 33P-ATP, filter-binding method. Here is the method:
The specific assay process of BTK enzyme activity assay is as follows: Buffer: 20 mM 2-[4-(2-hydroxyethyl)-1-piperazinyl]ethanesulfonic acid (Hepes) (pH 7.5), 10 mM magnesium chloride, 1 mM ethylenebis(oxyethylenenitrilo)tetraacetic acid (EGTA), 0.02% polyoxyethylene dodecyl ether (Brij35), 0.02 mg/mL BSA, 0.1 mM sodium vanadate (Na3VO4), 2 mM dithiothreitol (DTT), 1% DMSO, 200 μM adenosine triphosphate (ATP). • 1. The substrate was prepared in freshly prepared reaction buffer; • 2. The required cofactor was added to the above-mentioned substrate solution; • 3. The kinase BTK^C481S was added to the above-mentioned substrate solution and mixed well; • 4. The compound dissolved in DMSO was added to the kinase reaction mixture by Echo550 (Acoustic technology; nanoliter range), and the mixture was incubated at room temperature for 20 minutes; • 5. ^33P-ATP (specific radioactivity of 10 μCi/μL) was added to the reaction mixture to initiate the reaction; • 6. The mixture was incubated at room temperature for 2 hours; • 7. The radioactivity was detected by filter-binding method; • 8. Kinase activity data represented the percentage of remaining kinase activity in the assay sample compared to the vehicle (dimethyl sulfoxide) reaction.

Test [2] relates to TMD8 cells. Briefly: BTK cell activity assay (CellTiter Glo). The test is classed as cell-based. To be noted: Homo sapiens, Cell Titer Glo, read-out: Relative IC50. Here is the method:
1. Cell Culture and Passage
The medium, trypsin and 1×PBS used in the cell passage process were preheated in a 37° C. water bath. The supernatant was aspirated.
1 mL of trypsin was added to rinse, and the rinse solution was aspirated. 1 mL of trypsin was added, respectively, and cells were digested at 37° C. until the cells fell off. 10 mL of culture medium was added and mixed well. The mixture was centrifuged at 1000 rpm for 5 min and the cells were resuspended in 10 mL of culture medium. 0.7 mL of cell suspension was pipetted into a counting cup and counted on ViCell XR to respectively obtain a cell density of 0.327 million/mL. 1.17 mL of cell suspension and culture medium were weighed, respectively, to dilute the cell suspension. According to the microplate layout diagram below, 100 μL of phosphate buffer was added to the peripheral wells of the 384-well microplate, and 40 μL of cell suspension was added to other wells, respectively. The cell plate was then cultured in an incubator.
2. Dosing • (1) Preparation of compound:
A 9 μL dilution of the compound to be assayed was added to a shallow-well plate for Pod (Labcyte, #LP-0200). The shallow-well plate was centrifuged at 2500 rpm for 30 s. • (2) The cell plate was removed from the incubator. • (3) According to the microplate layout diagram below, compounds were serially diluted 3-fold in Pod to obtain 10 concentrations. The diluted compounds were added to the cell plate at 100 nL, respectively, and then the cell plate was returned to the incubator for culture. • 3. At Day 0, 20 μL of CellTiter Glo was added to the plate with DMSO added, and the mixture was shaken in the dark for 10 minutes. The plate was read with Envision. • 4. At Day 5: CTG was added and the plate was read. • (1) After being cultured for 72 h, 20 μL of Cell Titer Glo was added to the cell plate, and the mixture was shaken in the dark for 10 minutes. • (2) The plate was read with Envision.
Assay Results • 1. Average value and standard deviation of 0% inhibition (DMSO well, MAX) and 100% inhibition (day 0, DMSO) in each group were calculated; • 2. […]
On the technique in general: Cellular ATP, detected with luciferase, serves as a proxy for viable cell number.

BTK^C481S, sequence (Q06187 whole entry C481S): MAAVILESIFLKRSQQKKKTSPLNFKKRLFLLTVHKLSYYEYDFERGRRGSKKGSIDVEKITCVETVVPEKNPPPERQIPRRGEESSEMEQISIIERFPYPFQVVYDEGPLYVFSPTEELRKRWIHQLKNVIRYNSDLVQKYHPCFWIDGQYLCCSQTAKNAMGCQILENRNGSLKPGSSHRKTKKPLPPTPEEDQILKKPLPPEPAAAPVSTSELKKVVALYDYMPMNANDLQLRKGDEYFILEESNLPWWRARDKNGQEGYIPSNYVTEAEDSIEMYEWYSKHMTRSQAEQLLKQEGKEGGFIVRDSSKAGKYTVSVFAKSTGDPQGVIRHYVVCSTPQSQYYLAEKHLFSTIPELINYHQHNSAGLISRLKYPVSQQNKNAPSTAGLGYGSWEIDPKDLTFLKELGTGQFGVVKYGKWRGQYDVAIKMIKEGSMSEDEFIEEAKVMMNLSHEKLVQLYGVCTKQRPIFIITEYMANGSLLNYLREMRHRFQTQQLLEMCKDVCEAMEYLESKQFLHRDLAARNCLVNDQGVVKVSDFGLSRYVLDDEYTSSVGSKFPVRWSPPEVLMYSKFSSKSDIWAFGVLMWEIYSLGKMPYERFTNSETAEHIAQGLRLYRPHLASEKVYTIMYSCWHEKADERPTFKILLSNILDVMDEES

Turning to `[2H]C([2H])([2H])O[C@@H]1C[C@@H](CO)OC[C@@H]1Nc1ncnc2[nH]cc(C(=O)c3ccc(Oc4ccccc4)cc3Cl)c12` [Compound 13], the IC50 in test [1] turned out to be 15.1 nM. As to `O=C(c1ccc(Oc2ccccc2)cc1Cl)c1c[nH]c2ncnc(N[C@H]3CO[C@H](CO)C[C@@H]3F)c12` [Compound 3], the IC50 amounted to 217 nM in test [2] and 6.7 nM in test [1].

Compound `N#CC[C@@H]1CC[C@@H](Nc2ncnc3[nH]cc(C(=O)c4ccc(Oc5ccccc5)cc4Cl)c23)CO1` [Compound 6] registered an IC50 in test [1] of 6.5 nM. As to `O=C(c1ccc(Oc2ccccc2)cc1Cl)c1c[nH]c2ncnc(N[C@H]3CO[C@H](CO)CC3(F)F)c12` [Compound 2], the figures for the IC50 in test [2] and in test [1] were 269 nM and 12.5 nM, respectively. Turning to `O=C(c1ccc(Oc2ccccc2)cc1Cl)c1c[nH]c2ncnc(N[C@H]3CO[C@H](CO)C4CC43)c12` (stereo partly shown) [Compound 1], in test [1], the IC50 worked out at 1.7 nM.

Take `CO[C@@H]1C[C@@H](CO)OC[C@@H]1Nc1ncnc2[nH]cc(C(=O)c3ccc(Oc4ccccc4)cc3F)c12` [Compound 10]: in test [1], the IC50 was determined as 14.9 nM.

For the compound `CO[C@H]1C[C@@H](CO)OC[C@@H]1Nc1ncnc2[nH]cc(C(=O)c3ccc(Oc4ccccc4)cc3Cl)c12` [Compound 7], the IC50 in test [1] was 43.6 nM.

For the compound `N#C[C@@H]1CC[C@@H](Nc2ncnc3[nH]cc(C(=O)c4ccc(Oc5ccccc5)cc4Cl)c23)CO1` [Compound 5], the IC50 in test [1] turned out to be 10.7 nM. Still for that read-out and setting: with `CO[C@@H]1C[C@@H](CO)OC[C@@H]1Nc1ncnc2[nH]cc(C(=O)c3ccc(Oc4ccccc4F)cc3Cl)c12` [Compound 12] the figure was 39.8 nM; with `CO[C@@H]1C[C@@H](CO)OC[C@@H]1Nc1ncnc2[nH]cc(C(=O)c3ccc(Oc4ccccc4)cc3C)c12` [Compound 9], 15.2 nM; with `O=C(c1ccc(Oc2ccccc2)cc1Cl)c1c[nH]c2ncnc(N[C@H]3CO[C@H](CO)C[C@H]3OCCO)c12` [Compound 8], 8.9 nM.
